{
  "source": "patent US10959992B2",
  "about": "“Methods of treatment of asthma and COPD” (Bridge Pharma, Inc., priority 2019, dated 2021)",
  "key": {"IL-10": {"test_system": "IL-10", "test": "PHA-induced release of IL-10 from human buffy coats", "assay_type": "cell-based", "conditions": "PHA 5 μg/ml, 16 hours, inhibition", "experimental": "(§1) The study was conducted in two phases. The first phase included optimization of the test methodology and included also dose-range finding studies, using buffy coats from 3 human donors, stimulated with phytohemagglutinin (PHA). The concentrations of the test article and the duration of exposure were optimized to obtain acceptable dose-response ratios. Following optimization of the test conditions, a final protocol was issued. In the Main Study, buffy coats from 5 healthy human male donors were stimulated with PHA, 5 μg/ml.\n(§2) The inhibitory effects of three concentrations of NK and one concentration of ketotifen were evaluated in the Main Study. The buffy coats were resuspended in assay media and were pre-incubated for 30 min with either vehicle/saline, ketotifen (10 μM) or norketotifen (1.0; 10 or 100 μM). Following these preincubations, the white blood cell suspensions were stimulated for 16 hours with PHA, 5 μg/ml. The cell system supernatants were then harvested and stored frozen."}, "[1]": {"test_system": "Methicillin-resistant S. aureus", "test": "Antimicrobial activity (MIC), MRSA", "assay_type": "cell-based", "conditions": "Staphylococcus aureus; Bacteria: MRSA; MIC refers to lethal concentrations"}, "human M-3 (hM3) receptor": {"target": "human M-3 (hM3) receptor (Homo sapiens, UniProt P20309)", "sequence (P20309 whole entry)": "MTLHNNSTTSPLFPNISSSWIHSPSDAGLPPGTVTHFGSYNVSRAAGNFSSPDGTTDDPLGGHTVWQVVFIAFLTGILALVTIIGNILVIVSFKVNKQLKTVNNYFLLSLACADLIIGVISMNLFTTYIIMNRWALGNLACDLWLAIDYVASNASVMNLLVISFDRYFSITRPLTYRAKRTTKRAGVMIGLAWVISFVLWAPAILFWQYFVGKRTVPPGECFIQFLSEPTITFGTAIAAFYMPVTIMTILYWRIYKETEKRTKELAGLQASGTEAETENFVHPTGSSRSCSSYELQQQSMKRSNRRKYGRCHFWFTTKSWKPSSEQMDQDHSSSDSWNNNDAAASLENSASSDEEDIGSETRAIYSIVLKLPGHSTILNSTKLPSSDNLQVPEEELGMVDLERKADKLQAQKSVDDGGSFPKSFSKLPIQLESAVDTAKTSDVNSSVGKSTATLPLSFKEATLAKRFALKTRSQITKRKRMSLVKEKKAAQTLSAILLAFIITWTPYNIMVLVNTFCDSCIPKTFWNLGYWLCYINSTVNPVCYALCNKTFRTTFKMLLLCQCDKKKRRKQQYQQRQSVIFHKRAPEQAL", "test": "Muscarinic M-3 receptor binding assay", "conditions": "calculated from mean values, as norketotifen free base; NK hydrogen fumarate tested in duplicates, 1.0E-08M to 1.0E-04M", "excerpt": "The current study used human M-3 (hM3) receptor and NK hydrogen fumarate was the antagonist in the current studies. The study used NK in duplicates at five dose-levels from 1.0E-08M to 1.0E-04M."}, "sedation": {"test_system": "sedation", "conditions": "orally administered, dogs; U.S. Pat. No. 8,557,846; cited from earlier work"}, "Moraxella catarrhalis": {"test_system": "Moraxella catarrhalis", "test": "Antimicrobial activity (MIC), Moraxella catarrhalis", "assay_type": "cell-based", "conditions": "Bacteria: Mc, MIC refers to lethal concentrations"}, "IL-13": {"test_system": "IL-13", "test": "PHA-induced release of IL-13 from human buffy coats", "assay_type": "cell-based", "conditions": "PHA 5 μg/ml, 16 hours, inhibition", "experimental": "as §1, §2"}, "[2]": {"test_system": "oxazolone-induced increase in ear thickness", "test": "Oxazolone test of immunosuppression (ear thickness)", "assay_type": "in vivo, BALB/c mice", "conditions": "for Increase in ear thickness (mm): control 0.153; for Increase in ear thickness (%): control 100.0", "experimental": "Male BALB/c mice, 20-24 grams, 7-12 weeks, were used. The sensitization dosing (Day 1) consisted of painting the ventral portion of the pre-shaved abdominal skin with 0.1 ml of 3.0% oxazolone in 70% ethanol. Test articles were administered orally in 1.0% methyl-cellulose, starting on Day 1 and continuing for 10 consecutive days. The challenge dosing consisted of the application of 0.05 ml of 3.0% oxazolone in 70% ethanol on both sides of the outer pinna of the right ear. The thickness of both ears of all animals was measured with a calliper before the challenge dose and 24 hours after the administration of the challenge dose (Day 10). The ear thickness of untreated mice was 0.19 to 0.20 mm.\nJustification of the model: The classic oxazolone test method was used with minor modifications. This method has been used for over 40 years in numerous drug development projects."}, "IL-4": {"test_system": "IL-4", "test": "PHA-induced release of IL-4 from human buffy coats", "assay_type": "cell-based", "conditions": "PHA 5 μg/ml, 16 hours, inhibition", "experimental": "as §1, §2"}, "[3]": {"test_system": "Trichophyton interdigitale", "test": "Antimicrobial activity (MIC), Trichophyton interdigitale", "assay_type": "cell-based", "conditions": "Mold: Ti, MIC refers to lethal concentrations"}, "immune system": {"test_system": "immune system", "test": "Repeat-dose toxicology studies, signs of immune system suppression", "assay_type": "in vivo", "conditions": "repeat-dose toxicology studies: hematology, clinical chemistry, histopathology, organ and body weight indicators"}, "Staphylococcus aureus": {"test_system": "Staphylococcus aureus", "test": "Antimicrobial activity (MIC), Staphylococcus aureus", "assay_type": "cell-based", "conditions": "Bacteria: Sa, MIC refers to lethal concentrations"}, "Candida albicans": {"test_system": "Candida albicans", "test": "Antimicrobial activity (MIC), Candida albicans", "assay_type": "cell-based", "conditions": "Fungi: Ca, MIC refers to lethal concentrations"}, "Aspergillus fumigatus": {"test_system": "Aspergillus fumigatus", "test": "Antimicrobial activity (MIC), Aspergillus fumigatus", "assay_type": "cell-based", "conditions": "Fungi: Af, MIC refers to lethal concentrations"}, "Water solubility": {"test": "Water solubility", "assay_type": "physicochemical"}, "Klebsiella pnemoniae": {"test_system": "Klebsiella pnemoniae", "test": "Antimicrobial activity (MIC), Klebsiella pnemoniae", "assay_type": "cell-based", "conditions": "Bacteria: Kp, MIC refers to lethal concentrations"}, "Haemophilus influenza": {"test_system": "Haemophilus influenza", "test": "Antimicrobial activity (MIC), Haemophilus influenza", "assay_type": "cell-based", "conditions": "Bacteria: Hi, MIC refers to lethal concentrations"}, "IFN-γ": {"test_system": "IFN-γ", "test": "PHA-induced release of IFN-γ from human buffy coats", "assay_type": "cell-based", "conditions": "PHA 5 μg/ml, 16 hours, inhibition", "experimental": "as §1, §2"}, "IL-8": {"test_system": "IL-8", "test": "PHA-induced release of IL-8 from human buffy coats", "assay_type": "cell-based", "conditions": "PHA 5 μg/ml, 16 hours, inhibition", "experimental": "as §1, §2"}, "IL-6": {"test_system": "IL-6", "test": "PHA-induced release of IL-6 from human buffy coats", "assay_type": "cell-based", "conditions": "PHA 5 μg/ml, 16 hours, inhibition", "experimental": "as §1, §2"}, "Streptococcus pneumoniae": {"test_system": "Streptococcus pneumoniae", "test": "Antimicrobial activity (MIC), Streptococcus pneumoniae", "assay_type": "cell-based", "conditions": "Bacteria: Sp, MIC refers to lethal concentrations"}, "[4]": {"test": "Plasma concentration after sc infusion (follow-up study)", "assay_type": "in vivo", "conditions": "Sprague-Dawley, rat, 1 mg/kg/day, after sc infusion of RS-norketotifen for 5 days, rats"}, "Malassezia pachydermatis": {"test_system": "Malassezia pachydermatis", "test": "Antimicrobial activity (MIC), Malassezia pachydermatis", "assay_type": "cell-based", "conditions": "Fungi: Mp, MIC refers to lethal concentrations"}, "IL-1β": {"test_system": "IL-1β", "test": "PHA-induced release of IL-1β from human buffy coats", "assay_type": "cell-based", "conditions": "PHA 5 μg/ml, 16 hours, inhibition", "experimental": "as §1, §2"}, "[5]": {"conditions": "10.0 mg/kg/day oral for 10 days"}, "[6]": {"conditions": "30.0 mg/kg/day oral for 10 days"}},
  "note": "Like-named read-outs stand apart in the source and are kept apart here.",
  "data": [
    {"molecule": "O=C1Cc2ccccc2C(=C2CCNCC2)c2ccsc21", "note": "(racemic) [norketotifen]", "values": [
      {"measurement": "Effect on PHA-induced release of IL-10 (%)", "setting": "IL-10; 1 uM", "result": "12.71^2%"},
      {"measurement": "Effect on PHA-induced release of IL-10 (%)", "setting": "IL-10; 10 uM", "result": "24.80^2%"},
      {"measurement": "Effect on PHA-induced release of IL-10 (%)", "setting": "IL-10; 100 uM", "result": "90.40^1%"},
      {"measurement": "MIC", "setting": "[1]", "result": 2000, "unit": "µg/mL"},
      {"measurement": "Ki", "setting": "human M-3 (hM3) receptor", "result": 2.2, "unit": "µM"},
      {"measurement": "Sedative side effects", "setting": "sedation", "result": "free from sedative side effects"},
      {"measurement": "MIC", "setting": "Moraxella catarrhalis", "result": 250, "unit": "µg/mL"},
      {"measurement": "MIC", "setting": "Moraxella catarrhalis; Moraxella catarrhalis, read-out: MIC", "result": 250, "unit": "µg/mL"},
      {"measurement": "Effect on PHA-induced release of IL-13 (%)", "setting": "IL-13; 1 uM", "result": 0.00, "unit": "%"},
      {"measurement": "Effect on PHA-induced release of IL-13 (%)", "setting": "IL-13; 10 uM", "result": "34.49^1%"},
      {"measurement": "Effect on PHA-induced release of IL-13 (%)", "setting": "IL-13; 100 uM", "result": "74.25^1%"},
      {"measurement": "Immunosuppression (%)", "setting": "[2]; [5]", "result": 3.9, "unit": "%"},
      {"measurement": "Increase in ear thickness (mm)", "setting": "[2]; [5]", "result": 0.147, "unit": "mm"},
      {"measurement": "Increase in ear thickness (%)", "setting": "[2]; [5]", "result": 96.1, "unit": "%"},
      {"measurement": "Immunosuppression (%)", "setting": "[2]; [6]", "result": 8.5, "unit": "%"},
      {"measurement": "Increase in ear thickness (mm)", "setting": "[2]; [6]", "result": 0.140, "unit": "mm"},
      {"measurement": "Increase in ear thickness (%)", "setting": "[2]; [6]", "result": 91.5, "unit": "%"},
      {"measurement": "Immuno-suppressant activity (conclusion in words)", "setting": "[2]; daily oral dosing for 10 days to mice, RS-norketotifen 10 or 30 mg/kg, prednisolone at 10 times lower doses", "result": "did not induce immuno-suppressant activity"},
      {"measurement": "Effect on PHA-induced release of IL-4 (%)", "setting": "IL-4; 1 uM", "result": 0.00, "unit": "%"},
      {"measurement": "Effect on PHA-induced release of IL-4 (%)", "setting": "IL-4; 10 uM", "result": 14.32, "unit": "%"},
      {"measurement": "Effect on PHA-induced release of IL-4 (%)", "setting": "IL-4; 100 uM", "result": "98.27^1%"},
      {"measurement": "MIC", "setting": "[3]", "result": 500, "unit": "µg/mL"},
      {"measurement": "Signs of immune system suppression", "setting": "immune system", "result": "no signs of immune system suppression"},
      {"measurement": "MIC", "setting": "Staphylococcus aureus", "result": 500, "unit": "µg/mL"},
      {"measurement": "MIC", "setting": "Candida albicans", "result": 1000, "unit": "µg/mL"},
      {"measurement": "MIC", "setting": "Aspergillus fumigatus", "result": 4000, "unit": "µg/mL"},
      {"measurement": "Water solubility", "setting": "Water solubility", "result": "about 2%"},
      {"measurement": "solubility", "setting": "Water solubility; water", "result": "~20", "unit": "mg/mL"},
      {"measurement": "MIC", "setting": "Klebsiella pnemoniae", "result": 500, "unit": "µg/mL"},
      {"measurement": "MIC", "setting": "Haemophilus influenza", "result": "about 0.25 mg/mL"},
      {"measurement": "MIC", "setting": "Haemophilus influenza; Haemophilus, read-out: MIC", "result": 250, "unit": "µg/mL"},
      {"measurement": "Effect on PHA-induced release of IFN-γ (%)", "setting": "IFN-γ; 1 uM", "result": 0.00, "unit": "%"},
      {"measurement": "Effect on PHA-induced release of IFN-γ (%)", "setting": "IFN-γ; 10 uM", "result": "16.54^2%"},
      {"measurement": "Effect on PHA-induced release of IFN-γ (%)", "setting": "IFN-γ; 100 uM", "result": "71.56^1%"},
      {"measurement": "Effect on PHA-induced release of IL-8 (%)", "setting": "IL-8; 1 uM", "result": "10.29^2%"},
      {"measurement": "Effect on PHA-induced release of IL-8 (%)", "setting": "IL-8; 10 uM", "result": "34.36^1%"},
      {"measurement": "Effect on PHA-induced release of IL-8 (%)", "setting": "IL-8; 100 uM", "result": "78.29^1%"},
      {"measurement": "Effect on PHA-induced release of IL-6 (%)", "setting": "IL-6; 1 uM", "result": 0.00, "unit": "%"},
      {"measurement": "Effect on PHA-induced release of IL-6 (%)", "setting": "IL-6; 10 uM", "result": "33.13^1%"},
      {"measurement": "Effect on PHA-induced release of IL-6 (%)", "setting": "IL-6; 100 uM", "result": "88.16^1%"},
      {"measurement": "MIC", "setting": "Streptococcus pneumoniae", "result": 500, "unit": "µg/mL"},
      {"measurement": "MIC", "setting": "Streptococcus pneumoniae; Streptococcus pneumoniae, read-out: MIC", "result": 500, "unit": "µg/mL"},
      {"measurement": "concentration at 5 days", "setting": "[4]", "result": "4 ± 0.24", "unit": "ng/mL"},
      {"measurement": "MIC", "setting": "Malassezia pachydermatis", "result": 1000, "unit": "µg/mL"},
      {"measurement": "Effect on PHA-induced release of IL-1β (%)", "setting": "IL-1β; 1 uM", "result": 0.00, "unit": "%"},
      {"measurement": "Effect on PHA-induced release of IL-1β (%)", "setting": "IL-1β; 10 uM", "result": 16.20, "unit": "%"},
      {"measurement": "Effect on PHA-induced release of IL-1β (%)", "setting": "IL-1β; 100 uM", "result": "57.00^1%"}
    ]}
  ]
}
